{"source": "patent US20090297478A1", "about": "“Methods and Compositions for the Treatment of Lupus Using Clofarabine” (priority 2002, published 2009)", "key": {"[1]": {"assay": "maximum tolerated dose of clofarabine", "assay_type": "in vivo", "conditions": "species and route not given", "description": "It may be necessary to use dosages of the active ingredient outside the ranges disclosed herein in some cases, as will be apparent to those of ordinary skill in the art, but the dosage should not fall below 0.01 mg/kg/day. The maximum tolerated doses of clofarabine is approximately 80 mg/kg per day. Furthermore, it is noted that the clinician or treating physician will know how and when to interrupt, adjust, or terminate therapy in conjunction with individual patient response."}, "[2]": {"assay": "degradation of the drug during dissolution, lyophilization and drying (parenteral formulation)", "assay_type": "physicochemical", "conditions": "dissolved in 1:1 tertiary butanol/Water for Injection at 5° C., lyophilized at −16° C. for 48 hours, dried at 15° C. under high vacuum for 48 hours, protected from light", "description": "Clofarabine, 9.86 g, is wetted/partially dissolved with 600 mL of a 9:1 mixture of tertiary butanol and Water for Injection USP which is pre-cooled to 5° C. Once the drug powder is completely wetted, dissolution is completed by the addition of 600 mL of a 1:9 mixture of tertiary butanol and Water for Injection and 766 mL of a 1:1 mixture of tertiary butanol and Water for Injection which likewise is pre-cooled to 5° C. thereby making the final solution a 1:1 mixture. The dissolution is carried out under protection from light.\nThe solution formed above is promptly lyophilized in a Virtis INOTOP lyophilizer at −16° C. under light protectant conditions over a period of 48 hours. The resultant lyophilized product (lyophile) is then further dried at 15° C. under high vacuum for 48 hours. […] The lyophile is packaged under sterile conditions into 30 mL vials, each containing 50 mg of drug, 50 mg of mannitol and sodium hydroxide to adjust the pH to 7.7 and standard excess to allow for vial/needle/syringe loss."}}, "data": [{"compound": "Nc1nc(Cl)nc2c1ncn2[C@@H]1O[C@H](CO)[C@@H](O)[C@@H]1F", "note": "[Clofarabine, 2-Chloro-9-(2-deoxy-2-fluoro-β-D-arabinofuranosyl)adenine]", "values": [{"measurement": "maximum tolerated dose", "setting": "[1]", "result": "approximately 80 mg/kg per day"}, {"measurement": "degradation of the drug", "setting": "[2]", "result": "No detectable degradation"}]}]}
